Measurements from US20020026053A1, “Novel 3-(substituted) -2- indolinones compounds and use thereof as inhibitors of protein kinase activity” (priority 1997, published 2002).

Tests used:
PDGF-R = PDGF-R Assay (cellular ELISA, U1242 cells); type: cell-based; set-up: concentration or dose not given beside the values; settings: protocol P.119
How it was run: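 Cellular ELISA for receptor autophosphorylation: after 2 hr test-compound treatment of serum-free U1242 cells at 37°C, ligand is added for 5–10 min, cells are lysed (HNTG) and receptor captured by specific antibody. Anti-phosphotyrosine plus secondary antibody with ABTS colour read at 410/630 nm, compared with compound-free control cells.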

EGFR = target: T1, EGFR (Homo sapiens, UniProt P00533); assay: Biochemical EGFR Assay; set-up: concentration or dose not given beside the values; settings: protocol P.167
T1 construct: endogenous in cells; host or cells: A431 cells (lysate, captured with SUMO1 anti-EGFR antibody)
How it was run: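 Readout is ABTS absorbance at 410 nm after anti-phosphotyrosine and HRP-antibody detection of EGFR autophosphorylation. The kinase was immunocaptured from A431 lysate, exposed 30 min to test compound diluted 1:10 in TBS, then phosphorylated for 5 min with ATP/MnCl2 before an EDTA stop.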

T1 sequence (P00533 25-1210): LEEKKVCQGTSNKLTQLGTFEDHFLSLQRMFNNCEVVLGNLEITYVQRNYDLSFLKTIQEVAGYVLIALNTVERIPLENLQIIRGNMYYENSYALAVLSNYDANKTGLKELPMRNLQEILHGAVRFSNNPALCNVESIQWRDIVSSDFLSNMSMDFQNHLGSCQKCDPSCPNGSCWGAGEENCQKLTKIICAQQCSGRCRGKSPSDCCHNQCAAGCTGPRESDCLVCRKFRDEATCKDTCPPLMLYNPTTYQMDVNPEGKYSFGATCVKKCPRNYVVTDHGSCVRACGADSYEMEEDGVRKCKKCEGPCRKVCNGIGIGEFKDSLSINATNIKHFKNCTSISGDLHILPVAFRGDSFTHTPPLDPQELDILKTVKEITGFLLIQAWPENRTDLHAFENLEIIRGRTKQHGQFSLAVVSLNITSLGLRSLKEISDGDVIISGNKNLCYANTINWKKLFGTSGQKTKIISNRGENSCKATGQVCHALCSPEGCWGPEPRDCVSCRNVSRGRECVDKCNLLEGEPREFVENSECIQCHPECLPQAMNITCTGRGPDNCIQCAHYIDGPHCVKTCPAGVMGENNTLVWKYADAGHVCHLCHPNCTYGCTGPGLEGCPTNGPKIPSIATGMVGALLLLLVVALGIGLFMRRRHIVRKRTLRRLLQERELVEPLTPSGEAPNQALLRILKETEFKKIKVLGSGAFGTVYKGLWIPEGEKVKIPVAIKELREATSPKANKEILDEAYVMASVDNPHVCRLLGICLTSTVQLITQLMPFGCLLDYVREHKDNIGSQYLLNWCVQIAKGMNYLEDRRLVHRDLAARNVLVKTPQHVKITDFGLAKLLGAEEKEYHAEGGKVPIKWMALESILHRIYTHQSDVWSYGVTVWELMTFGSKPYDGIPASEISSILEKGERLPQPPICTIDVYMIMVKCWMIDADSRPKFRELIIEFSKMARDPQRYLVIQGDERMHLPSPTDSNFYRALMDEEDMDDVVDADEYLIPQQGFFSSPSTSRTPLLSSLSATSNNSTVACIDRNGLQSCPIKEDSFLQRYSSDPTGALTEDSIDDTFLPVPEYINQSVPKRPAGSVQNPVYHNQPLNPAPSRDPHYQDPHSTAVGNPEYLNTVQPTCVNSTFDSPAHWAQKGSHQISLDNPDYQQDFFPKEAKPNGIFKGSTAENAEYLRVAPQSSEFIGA

Compound | PDGF Kinase % Inhibition (P.119) (PDGF-R) [%] | Biochem EGFR % Inhibition (P.167) (EGFR) [%]
CNS(=O)(=O)c1ccc2c(c1)C(=Cc1ccc(OC)c(C)c1)C(=O)N2 [10739/D02] | 17.8 | 2.6
CNS(=O)(=O)c1ccc2c(c1)C(=Cc1cc(O)c(O)c(O)c1)C(=O)N2 [10739/D07] | 18.8 | 21.1
O=C1Nc2ccc(S(=O)(=O)Nc3ccc(C(F)(F)F)cc3)cc2C1=Cc1cc(O)c(O)c(O)c1 [10739/E07] | 48.4 | 79.6
CNS(=O)(=O)c1ccc2c(c1)C(=Cc1cccc(OCc3ccccc3)c1)C(=O)N2 [10739/D03] | 14.4 | 24.7
COc1ccc(C=C2C(=O)Nc3ccc(S(=O)(=O)Nc4ccc(C(F)(F)F)cc4)cc32)cc1C [10739/E02] | 18.3 | −8.3
O=C1Nc2ccc(I)cc2C1=Cc1ccc(O)cc1Cl [10739/B06] | 6.7 | 9.2
COc1ccc(Oc2cccc(C=C3C(=O)Nc4ccc(I)cc43)c2)cc1 [10739/B08] | −0.1 | 19.8
O=C1Nc2ccc(S(=O)(=O)N3CCOCC3)cc2C1=Cc1cc(O)c(O)c(O)c1 [10739/F07] | 23.7 | 62.4
Cc1c(Br)ccc2c1C(=Cc1ccc(O)cc1Cl)C(=O)N2 [10739/C06] | 33.8 | −17.0
O=C1Nc2ccc(S(=O)(=O)N3CCOCC3)cc2C1=Cc1ccc(O)cc1Cl [10739/F06] | 9.1 | −15.3
COc1ccc(Oc2cccc(C=C3C(=O)Nc4ccc(Br)c(C)c43)c2)cc1 [10739/C08] | 11.0 | −1.7
CN(C)CCCOc1ccc(C=C2C(=O)Nc3ccc(S(=O)(=O)N4CCOCC4)cc32)cc1 [10739/F09] | 3.3 | −19.6
O=C1Nc2ccc(CCCl)cc2C1=Cc1cc(O)c(O)c(O)c1 [10739/G07] | 10.1 | 10.0
COc1ccc(Oc2cccc(C=C3C(=O)Nc4c(Br)cc(Br)cc43)c2)cc1 [10739/A08] | 3.8 | 6.2
O=C1Nc2ccc(S(=O)(=O)Nc3ccc(C(F)(F)F)cc3)cc2C1=Cc1ccc(O)cc1Cl [10739/E06] | 72.7 | 33.5
O=C1Nc2c(Br)cc(Br)cc2C1=Cc1ccc(O)cc1Cl [10739/A06] | 17.8 | −5.5
Cc1c(Br)cc(Br)c2c1C(=Cc1ccoc1)C(=O)N2 [10739/H10] | −13.2 | −26.6
CN(C)CCCOc1ccc(C=C2C(=O)Nc3ccc(S(=O)(=O)Nc4ccc(C(F)(F)F)cc4)cc32)cc1 [10739/E09] | 18.3 | 15.2
CN(C)CCCOc1ccc(C=C2C(=O)Nc3ccc(CCCl)cc32)cc1 [10739/G09] | 13.9 | −39.8
CNS(=O)(=O)c1ccc2c(c1)C(=CC1COc3ccccc3O1)C(=O)N2 (centres unmarked) [10739/D05] | −6.9 | −10.6
O=C1Nc2ccc(I)cc2C1=Cc1ccc(CO)o1 [10739/B11] | −9.8 | −4.2
Cc1c(Br)ccc2c1C(=Cc1ccc(CO)o1)C(=O)N2 [10739/C11] | 9.1 | −17.0
